Experimental data: PubChem BioAssay AID248 (DTP/NCI, 2004)
Where “and” joins values, the source holds several entries; their conditions need not be identical. Identical values can stand only once. Toxic doses and inconclusive results are not listed. No stated cut-off is given here; in the data, active means T/C of 150% or more; inactive means T/C below 125%.

Tested on: L1210 leukemia ip in BDF1 mice, survival T/C
Assay: NCI In Vivo Anticancer Drug Screen. Data for tumor model L1210 Leukemia (intraperitoneal) in B6D2F1 (BDF1) mice
Conditions: endpoint: mean survival time, higher = longer survival
Summary of the method: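 Ratio derived from survival: compound-dosed mice over vehicle-dosed mice, all bearing a transplantable tumor.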

[1] = dose: 100.0 mg/kg/injection, schedule: Q01DX009 (ip), vehicle: Klucel (hydroxypropylcellulose) (HPC)
[2] = dose: 200.0 mg/kg/injection, schedule: Q01DX009 (ip), vehicle: Klucel (hydroxypropylcellulose) (HPC)
[3] = dose: 400.0 mg/kg/injection, schedule: Q01DX009 (ip), vehicle: Klucel (hydroxypropylcellulose) (HPC)
[4] = dose: 100.0 mg/kg/injection, schedule: Q04DX003 (ip), vehicle: saline with Tween-80
[5] = dose: 200.0 mg/kg/injection, schedule: Q04DX003 (ip), vehicle: saline with Tween-80
[6] = dose: 400.0 mg/kg/injection, schedule: Q04DX003 (ip), vehicle: saline with Tween-80
[7] = dose: 100.0 mg/kg/injection, schedule: Q04DX003 (ip), vehicle: Klucel (hydroxypropylcellulose) (HPC)
[8] = dose: 100.0 mg/kg/injection, schedule: Q04DX002 (ip), vehicle: saline
[9] = dose: 100.0 mg/kg/injection, schedule: Q01DX001 (ip), vehicle: saline
[10] = dose: 100.0 mg/kg/injection, schedule: Q01DX009 (ip), vehicle: saline
[11] = dose: 100.0 mg/kg/injection, schedule: Q04DX003 (ip), vehicle: saline
[12] = dose: 200.0 mg/kg/injection, schedule: Q01DX009 (ip), vehicle: saline
[13] = dose: 200.0 mg/kg/injection, schedule: Q04DX003 (ip), vehicle: saline
[14] = dose: 400.0 mg/kg/injection, schedule: Q04DX003 (ip), vehicle: saline
[15] = dose: 50.0 mg/kg/injection, schedule: Q01DX009 (ip), vehicle: saline with Tween-80
[16] = dose: 100.0 mg/kg/injection, schedule: Q01DX009 (ip), vehicle: saline with Tween-80
[17] = dose: 200.0 mg/kg/injection, schedule: Q01DX009 (ip), vehicle: saline with Tween-80
[18] = dose: 200.0 mg/kg/injection, schedule: Q04DX003 (ip), vehicle: Klucel (hydroxypropylcellulose) (HPC)
[19] = dose: 50.0 mg/kg/injection, schedule: Q01DX001 (ip), vehicle: saline
[20] = dose: 200.0 mg/kg/injection, schedule: Q01DX001 (ip), vehicle: saline
[21] = dose: 400.0 mg/kg/injection, schedule: Q01DX001 (ip), vehicle: saline

Measured: T/C

C/C(=N/N(C)C)c1ccccc1O
inactive: [1] 103 % of control | [2] 106 % of control | [3] 92 % of control

Cc1cccc(Sc2cccc3c2C(C)(O)c2c(Sc4cccc(C)c4)cccc2C3(C)O)c1 (configuration not stated)
inactive: [4] 96 % of control | [5] 95 % of control | [6] 96 % of control

CCc1cccc[n+]1CC(=O)c1ccc(-c2ccccc2)cc1
inactive: [7] 86 % of control

CC1CCCN(C(=O)CCCCl)C1 (configuration not stated)
inactive: [8] 96 % of control | dose: 200.0 mg/kg/injection, schedule: Q04DX002 (ip), vehicle: saline 99 % of control | dose: 400.0 mg/kg/injection, schedule: Q04DX002 (ip), vehicle: saline 99 % of control

O/N=C/c1c(I)cc(I)c(O)c1I
inactive: [1] 101 % of control | [2] 106 % of control | [3] 90 % of control

C[N+]12CC3C(O)CC1CCC32 (configuration not stated)
inactive: [9] 101 % of control

C=CCN(CC=C)c1ncnc(N(C)C)n1
inactive: dose: 25.6 mg/kg/injection, schedule: Q04DX002 (ip), vehicle: saline with Tween-80 93 % of control | dose: 64.0 mg/kg/injection, schedule: Q04DX002 (ip), vehicle: saline with Tween-80 101 % of control | dose: 160.0 mg/kg/injection, schedule: Q04DX002 (ip), vehicle: saline with Tween-80 101 % of control | dose: 400.0 mg/kg/injection, schedule: Q04DX002 (ip), vehicle: saline with Tween-80 97 % of control

N=C(N)SCCC(=O)O
inactive: [10] 100 % of control | [11] 90 % of control | [12] 110 % of control | [13] 96 % of control | dose: 400.0 mg/kg/injection, schedule: Q01DX009 (ip), vehicle: saline 115 % of control | [14] 95 % of control

COc1c(N)cc2c(c1C)OC(C)(C)C=C2
inactive: dose: 25.0 mg/kg/injection, schedule: Q01DX009 (ip), vehicle: saline with Tween-80 109 % of control | [15] 101 % of control | [4] 101 % of control and 94 % of control | [5] 100 % of control

CCN(C(=O)CC(C)=O)c1ccccc1
inactive: [16] 91 % of control | [4] 98 % of control | [17] 93 % of control | [5] 98 % of control | dose: 400.0 mg/kg/injection, schedule: Q01DX009 (ip), vehicle: saline with Tween-80 94 % of control | [6] 98 % of control

C/C=C\C(=O)O
inactive: [10] 101 % of control | [12] 96 % of control

CC(=O)Nc1ccc(S(=O)(=O)NO)cc1
inactive: dose: 50.0 mg/kg/injection, schedule: Q01DX009 (ip), vehicle: saline 96 % of control | [10] 100 % of control | [11] 100 % of control | [12] 94 % of control | [13] 103 % of control | [14] 101 % of control

C/C(=C/C=C(/C)C(=O)O)C(=O)O
inactive: dose: 100.0 mg/kg/injection, schedule: Q01DX001 (ip), vehicle: carboxymethylcellulose (CMC) 95 % of control | [7] 101 % of control | dose: 200.0 mg/kg/injection, schedule: Q01DX001 (ip), vehicle: carboxymethylcellulose (CMC) 95 % of control | [18] 115 % of control | dose: 400.0 mg/kg/injection, schedule: Q01DX001 (ip), vehicle: carboxymethylcellulose (CMC) 98 % of control | dose: 400.0 mg/kg/injection, schedule: Q04DX003 (ip), vehicle: Klucel (hydroxypropylcellulose) (HPC) 93 % of control

O=[N+]([O-])c1ccc(/C=C/C2OCCO2)cc1
inactive: [19] 98 % of control | [9] 96 % of control | [20] 101 % of control

CCOC(=O)N1CCN2C(=O)N(CC)CCC2C1 (configuration not stated)
inactive: [9] 93 % of control | [20] 93 % of control | [21] 94 % of control

CCCN(CCC)CCCCO
inactive: [15] 102 % of control | [16] 95 % of control | [4] 92 % of control | [17] 102 % of control | [5] 102 % of control

Cc1ccc(S(=O)(=O)OCC2CO2)cc1 (configuration not stated)
inactive: dose: 100.0 mg/kg/injection, schedule: Q01DX009 (ip), vehicle: acetone 92 % of control | dose: 100.0 mg/kg/injection, schedule: Q04DX003 (ip), vehicle: acetone 92 % of control | dose: 200.0 mg/kg/injection, schedule: Q04DX003 (ip), vehicle: acetone 95 % of control | dose: 400.0 mg/kg/injection, schedule: Q01DX009 (ip), vehicle: acetone 87 % of control | dose: 400.0 mg/kg/injection, schedule: Q04DX003 (ip), vehicle: acetone 92 % of control

CC1[N-]CCC[N-]CCC[N-]C(C)C2CCCC1[N-]2.[Ni+2].[O-][Cl+3]([O-])([O-])O (configuration not stated)
inactive: dose: 25.0 mg/kg/injection, schedule: Q04DX002 (ip), vehicle: saline 92 % of control | dose: 50.0 mg/kg/injection, schedule: Q04DX002 (ip), vehicle: saline 89 % of control | [8] 92 % of control

Cc1ncc2c(n1)NC(c1ccc(Cl)cc1)=NC2
inactive: dose: 75.0 mg/kg/injection, schedule: Q01DX001 (ip), vehicle: other 91 % of control | dose: 150.0 mg/kg/injection, schedule: Q01DX001 (ip), vehicle: other 100 % of control | dose: 300.0 mg/kg/injection, schedule: Q01DX001 (ip), vehicle: other 96 % of control

O=C(O)C1(Cl)C2(Cl)C(Cl)=CC3(Cl)C(Cl)(C(=O)O)C2(Cl)C31Cl (configuration not stated)
inactive: [19] 108 % of control | [9] 103 % of control | [20] 101 % of control | [21] 97 % of control

CC(=O)Nc1cc(C)cc(NC(C)=O)c1C
inactive: dose: 75.0 mg/kg/injection, schedule: Q01DX001 (ip), vehicle: carboxymethylcellulose (CMC) 94 % of control | dose: 300.0 mg/kg/injection, schedule: Q01DX001 (ip), vehicle: carboxymethylcellulose (CMC) 90 % of control

Nc1nc2c(ncn2-c2ccc(OCCCc3ccccc3)cc2)c(=O)[nH]1
inactive: dose: 1.56 mg/kg/injection, schedule: Q01DX001 (ip), vehicle: saline with Tween-80 97 % of control | dose: 3.13 mg/kg/injection, schedule: Q01DX001 (ip), vehicle: saline with Tween-80 92 % of control | dose: 6.25 mg/kg/injection, schedule: Q01DX001 (ip), vehicle: saline with Tween-80 94 % of control and 87 % of control | dose: 25.0 mg/kg/injection, schedule: Q01DX001 (ip), vehicle: saline with Tween-80 92 % of control and 91 % of control

CCC/C=C(/CC(=O)O)C(=O)O
inactive: [11] 95 % of control | [13] 100 % of control | [14] 97 % of control

CC(C)(C)[N+](Cc1ccccc1)(Cc1ccccc1)Cc1ccccc1
inactive: [4] 100 % of control | [5] 100 % of control | [6] 104 % of control

COc1ccc(NC(=S)N(CCC#N)C2CCCCC2)cc1
inactive: dose: 100.0 mg/kg/injection, schedule: Q04DX002 (ip), vehicle: Klucel (hydroxypropylcellulose) (HPC) 101 % of control | dose: 200.0 mg/kg/injection, schedule: Q04DX002 (ip), vehicle: Klucel (hydroxypropylcellulose) (HPC) 94 % of control | dose: 400.0 mg/kg/injection, schedule: Q04DX002 (ip), vehicle: Klucel (hydroxypropylcellulose) (HPC) 90 % of control

CCOC=Nc1cc[n+]([O-])nc1C
inactive: dose: 43.75 mg/kg/injection, schedule: Q04DX002 (ip), vehicle: saline 104 % of control | dose: 87.5 mg/kg/injection, schedule: Q04DX002 (ip), vehicle: saline 104 % of control | dose: 175.0 mg/kg/injection, schedule: Q04DX002 (ip), vehicle: saline 104 % of control

CC(=O)c1ccc(F)cc1
inactive: dose: 50.0 mg/kg/injection, schedule: Q01DX009 (ip), vehicle: Klucel (hydroxypropylcellulose) (HPC) 98 % of control | [1] 98 % of control | [7] 86 % of control | [2] 97 % of control | [18] 98 % of control
